Test system: RSV A/Tracy
Experiment: Micro-Neutralization Test (MNT)
Format: cell-based, respiratory syncytial virus
Details: 40 μg/ml mAb in test solution
Experimental: In order to assess the neutralization capacity of the mAb at 40 μg/ml against RSV A/Tracy a Micro-Neutralization Test (MNT) was performed. A 40 μg/ml Palivizumab stock was taken as positive control and 40 μg/ml stock of an isotype-matched mAb as negative control (Table 10).

Substance: Palivizumab
- RSV A, Tracy MN titer (log2): 5.0 log2
